Measurements reported in patent US20170050957A1, “4-AMINO-6-(HETEROCYCLIC)PICOLINATES AND 6-AMINO-2-(HETEROCYCLIC)PYRIMIDINE-4-CARBOXYLATES AND THEIR USE AS HERBICIDES” (Dow AgroSciences LLC, priority 2013, published 2017).
Like-named read-outs stand apart in the source and are kept apart here.

What was measured:
[1] = tested on: Key Grass and Sedge Weeds as well as Grass Crops; assay: Post-emergent Test II herbicidal activity (Table 16); type: in vivo; settings: post-emergence, 336 h, 14 d; for pest or weed control at 35 g/ha: 35 g ai/ha; for pest or weed control at 70 g/ha: 70 g ai/ha; for pest or weed control at 140 g/ha: 140 g ai/ha
Outline: (§1)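 Visual injury rating (0 = none, 100% = complete kill) made 14 d after treatment, relative to untreated plants. Compounds in an acetone/DMSO/aqueous crop-oil/surfactant spray, at top rate and serial 1/2×-1/16× rates, were applied at 187 L/ha overhead to first-second true leaf plants raised 7-21 d in greenhouse.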

[2] = tested on: Key Broadleaf Weed and Crop Species; assay: Post-emergent Test II herbicidal activity (Table 15); type: in vivo; settings: post-emergence, 336 h, 14 d; for pest or weed control at 35 g/ha: 35 g ai/ha; for pest or weed control at 70 g/ha: 70 g ai/ha; for pest or weed control at 140 g/ha: 140 g ai/ha
Outline: as §1

[3] = Cyperus esculentus, yellow nutsedge (Cyperus esculentus), read-out: Visual Growth Reduction (%) 14 Days After Application, CYPES
[4] = Echinochloa crus-galli, barnyardgrass (Echinochloa crus-galli), read-out: Visual Growth Reduction (%) 14 Days After Application, ECHCG
[5] = Oryza sativa, rice (Oryza sativa), read-out: Visual Growth Reduction (%) 14 Days After Application, ORYSA
[6] = Setaria faberi, giant foxtail (Setaria faberi), read-out: Visual Growth Reduction (%) 14 Days After Application, SETFA
[7] = Triticum aestivum, wheat, spring (Triticum aestivum), read-out: Visual Growth Reduction (%) 14 Days After Application, TRZAS
[8] = Zea mays, maize, corn (Zea mays), read-out: Visual Growth Reduction (%) 14 Days After Application, ZEAMX
[9] = Abutilon theophrasti, velvetleaf (Abutilon theophrasti), read-out: Visual Growth Reduction (%) 14 Days After Application, ABUTH
[10] = Amaranthus retroflexus, redroot pigweed (Amaranthus retroflexus), read-out: Visual Growth Reduction (%) 14 Days After Application, AMARE
[11] = Brassica napus, oilseed rape, canola (Brassica napus), read-out: Visual Growth Reduction (%) 14 Days After Application, BRSNN
[12] = Chenopodium album, lambsquarters (Chenopodium album), read-out: Visual Growth Reduction (%) 14 Days After Application, CHEAL
[13] = Euphorbia heterophylla, wild poinsettia (Euphorbia heterophylla), read-out: Visual Growth Reduction (%) 14 Days After Application, EPHHL
[14] = Helianthus annuus, sunflower (Helianthus annuus), read-out: Visual Growth Reduction (%) 14 Days After Application, HELAN

melting point: 204 to 206 °C
Compound: COc1c(N)nc(-c2ccc(Cl)c3occc23)nc1C(=O)O [Compound 2.22]
pest or weed control at 35 g/ha [1, 3]: 0 to 29%
pest or weed control at 70 g/ha [1, 3]: 0 to 29%
pest or weed control at 140 g/ha [1, 3]: 0 to 29%
pest or weed control at 35 g/ha [1, 4]: 0 to 29%
pest or weed control at 70 g/ha [1, 4]: 0 to 29%
pest or weed control at 140 g/ha [1, 4]: 0 to 29%
pest or weed control at 35 g/ha [1, 5]: 0 to 29%
pest or weed control at 70 g/ha [1, 5]: 0 to 29%
pest or weed control at 140 g/ha [1, 5]: 0 to 29%
pest or weed control at 35 g/ha [1, 6]: 0 to 29%
pest or weed control at 70 g/ha [1, 6]: 0 to 29%
pest or weed control at 140 g/ha [1, 6]: 0 to 29%
pest or weed control at 35 g/ha [1, 7]: 0 to 29%
pest or weed control at 70 g/ha [1, 7]: 0 to 29%
pest or weed control at 140 g/ha [1, 7]: 0 to 29%
pest or weed control at 35 g/ha [1, 8]: 0 to 29%
pest or weed control at 70 g/ha [1, 8]: 0 to 29%
pest or weed control at 140 g/ha [1, 8]: 0 to 29%
pest or weed control at 35 g/ha [2, 9]: 30 to 44%
pest or weed control at 70 g/ha [2, 9]: 30 to 44%
pest or weed control at 140 g/ha [2, 9]: 45 to 59%
pest or weed control at 35 g/ha [2, 10]: 95 to 100%
pest or weed control at 70 g/ha [2, 10]: 95 to 100%
pest or weed control at 140 g/ha [2, 10]: 95 to 100%
pest or weed control at 35 g/ha [2, 11]: 0 to 29%
pest or weed control at 70 g/ha [2, 11]: 45 to 59%
pest or weed control at 140 g/ha [2, 11]: 60 to 74%
pest or weed control at 35 g/ha [2, 12]: 95 to 100%
pest or weed control at 70 g/ha [2, 12]: 95 to 100%
pest or weed control at 140 g/ha [2, 12]: 95 to 100%
pest or weed control at 35 g/ha [2, 13]: 0 to 29%
pest or weed control at 70 g/ha [2, 13]: 0 to 29%
pest or weed control at 140 g/ha [2, 13]: 0 to 29%
pest or weed control at 35 g/ha [2, 14]: 75 to 84%
pest or weed control at 70 g/ha [2, 14]: 85 to 94%
pest or weed control at 140 g/ha [2, 14]: 95 to 100%
